Legend:
WI-38 PGE2 production = assay: Prostaglandin E2 (PGE2) production in human fibroblasts (WI-38); type: cell-based; settings: WI-38, 0.5 h, concentration: 1 × 10^-6 M, 30 minutes at 37° C., PGE2 by EIA, read-out: WI-38 PGE2 production increase ratio
Procedure: (II) Prostaglandin E2 (PGE2) production in human fibroblasts
The assay of PGE2 production was modified from the procedure described in The Journal of Biological Chemistry, 257, 8630-8633 (1982).
Human fibroblasts (WI-38, ATCC CCL75) were grown in Eagle's Minimum Essential Medium [E-MEM: ICN Biomedical Inc., Cat. No. 10-101-24 (47.6 g) with sodium bicarbonate (11.0 g), penicillin G potassium salt (0.5 g), streptomycin sulfate (0.5 g) in water (5000 ml) and 10% fetal bovine serum]. The cells were placed into the quiescent state after confluence was reached.
(b) Measurements of PGE2 production
WI-38 cells were seeded in 24-well plates at a density of 1×10^5 cells/well with 0.5 ml of E-MEM including 1% fetal bovine serum and were cultured for 1 day. The mediums in 24-well plates in which WI-38 cells were cultured were removed by aspiration and Hanks-bovine serum albumin buffer [Hanks-BSA Buffer: Hanks' balanced salts (4.9 g), sodium bicarbonate (0.1 g) and bovine serum albumin (protease free) (0.5 g)] was added thereto. […] Supernatant was collected, and PGE2 level included therein was measured by PGE2 EIA Kit (Cayman Chemical Co.).

Bradykinin receptor = molecular target: T1, Bradykinin receptor (Cavia porcellus, UniProt O70526); assay: 3H-Bradykinin receptor binding (crude guinea pig ileum membrane); set-up: species or system guinea pigs; settings: 3H-Bradykinin 0.06 nM, room temperature, 60 minutes, read-out: Inhibition of ^3 H-Bradykinin binding: IC50
T1 construct: The ileum was removed and homogenized in buffer; from tissue; host or cells: guinea pig (male Hartley strain) ileum, crude membrane suspension
T1 sequence (O70526 1-372): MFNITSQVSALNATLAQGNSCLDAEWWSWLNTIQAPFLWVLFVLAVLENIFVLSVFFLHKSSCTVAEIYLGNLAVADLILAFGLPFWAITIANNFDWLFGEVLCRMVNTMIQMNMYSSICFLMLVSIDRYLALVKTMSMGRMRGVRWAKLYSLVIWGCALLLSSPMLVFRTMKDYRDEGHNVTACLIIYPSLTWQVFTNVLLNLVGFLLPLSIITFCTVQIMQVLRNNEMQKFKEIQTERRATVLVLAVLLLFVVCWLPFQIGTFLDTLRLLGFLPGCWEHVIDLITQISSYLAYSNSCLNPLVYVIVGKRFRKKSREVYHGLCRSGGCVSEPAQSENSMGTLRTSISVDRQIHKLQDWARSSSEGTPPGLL
Procedure: (I) ^3 H-Bradykinin receptor binding
(a) Crude ileum membrane preparation
Male Hartly strain guinea pigs were sacrificed by decapitation. The ileum was removed and homogenized in buffer (50 mM 2-[[tris(hydroxymethyl)methyl]amino]-1-ethanesulfonic acid (TES), 1 mM 1,10-phenanthroline pH 6.8). The homogenate was centrifuged (1000×g,20 minutes) to remove tissue clumps and the supernatant was centrifuges (100,000×g, 60 minutes) to yield a pellet. The pellet was resuspended in buffer (50 mM TES, 1 mM 1,10-phenanthroline, 140 mg/l bacitracin, 1 mM dithiothreiol, 0.1% bovine serum albumin pH 6.8) and homogenized with a glass-teflon homogenizer to yield suspension which was referred to as crude membrane suspension. The obtained membrane suspension was stored at -80° C. until use.
(b) ^3 H-Bradykinin binding to the membrane
The frozen crude membrane suspension was thawed. In binding assays, ^3 H-Bradykinin (0.06 nM) and drug were incubated with 50 μl of the membrane suspension at room temperature for 60 minutes in a final volume of 250 μ1. Separation of receptor-bound from free ^3 H-Bradykinin is achieved by immediate filtration under vacuum and washed three times with 5 ml of ice-cold buffer (50 mM Tris-HCl pH 7.5). Non-specific binding was defined as binding in the presence of 0.1 μM Bradykinin. The radioactivity retained on rinsed filters was determined by a liquid-scintillation counter.

Row | IC50 (Bradykinin receptor) [nM] | Structure (SMILES) | fold induction at 1 µM (WI-38 PGE2 production)
1 | 0.99 | CNC(=O)c1ccc(C=CC(=O)NCC(=O)N(C)c2ccc(Cl)c(COc3cccc4c(OCc5ccccn5)cc(C)nc34)c2Cl)cc1 [Example 1-(2), 8-[2,6-dichloro-3-[N-[4-(methylcarbamoyl)cinnamoylglycyl]-N-methylamino]benzyloxy]-2-methyl-4-(2-pyridylmethoxy)quinoline] | 7.95
2 | 6.3 | COc1nc2c(OCc3c(Cl)ccc(N(C)C(=O)CNC(=O)/C=C/c4ccc(NC(C)=O)nc4)c3Cl)cccc2n1Cc1ccccn1 [Example 9, 4-[3-[N-[(E)-3-(6-acetamidopyridin-3-yl)acryloylglycyl]-N-methylamino]-2,6-dichlorobenzyloxy]-2-methoxy-1-(2-pyridylmethyl)-1H-benzimidazole] | 10.8
